This note sets out measurements from publication PMC13125297, “Portable geosmin detection system based on sensor cells expressing insect odorant receptors” (Scientific Reports, 2026).

Assay [1] has as its target T1, Or56a (Drosophila melanogaster, UniProt Q9V8Y7).
T1 construct: with Orco
Briefly: GCaMP6s calcium imaging in Sf21 cells co-expressing Or56a and Orco, dose-response. The format is cell-based.

In assay [2] the target is T2, Or13a (Drosophila melanogaster, UniProt Q9VXL0).
T2 construct: wild-type Or13a stably expressed in Sf21 cells (clone Or13a-WT-C4); with Orco
T2 sequence (Q9VXL0 1-418): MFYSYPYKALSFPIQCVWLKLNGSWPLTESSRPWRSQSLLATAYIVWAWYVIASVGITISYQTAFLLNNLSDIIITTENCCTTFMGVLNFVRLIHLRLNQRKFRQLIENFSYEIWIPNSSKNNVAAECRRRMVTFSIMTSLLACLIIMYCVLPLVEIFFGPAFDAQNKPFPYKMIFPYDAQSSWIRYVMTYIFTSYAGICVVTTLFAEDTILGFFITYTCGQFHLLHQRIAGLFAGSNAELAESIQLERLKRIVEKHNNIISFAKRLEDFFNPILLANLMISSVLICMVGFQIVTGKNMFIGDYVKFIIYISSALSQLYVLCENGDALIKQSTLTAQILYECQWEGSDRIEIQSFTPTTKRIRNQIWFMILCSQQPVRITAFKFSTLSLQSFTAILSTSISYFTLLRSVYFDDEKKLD
T2 sequence (Q9VNB5 1-486 partner): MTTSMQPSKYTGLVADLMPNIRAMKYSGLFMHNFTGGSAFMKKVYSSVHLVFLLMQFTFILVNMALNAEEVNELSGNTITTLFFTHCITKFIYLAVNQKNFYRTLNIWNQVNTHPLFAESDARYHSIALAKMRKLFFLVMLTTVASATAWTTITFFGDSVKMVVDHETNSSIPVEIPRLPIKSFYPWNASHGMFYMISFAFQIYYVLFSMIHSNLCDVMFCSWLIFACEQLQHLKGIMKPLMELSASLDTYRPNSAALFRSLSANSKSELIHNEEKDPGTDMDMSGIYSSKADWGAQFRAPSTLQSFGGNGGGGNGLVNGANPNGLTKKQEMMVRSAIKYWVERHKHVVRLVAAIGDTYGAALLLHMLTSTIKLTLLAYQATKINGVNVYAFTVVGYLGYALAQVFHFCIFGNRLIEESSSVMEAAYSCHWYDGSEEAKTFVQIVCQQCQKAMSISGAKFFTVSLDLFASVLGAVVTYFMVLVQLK
Briefly: GCaMP6s calcium imaging in Sf21 cells co-expressing Or13a and Orco, dose-response. The format is cell-based.

T1 sequence (Q9V8Y7 whole entry, one chain of several): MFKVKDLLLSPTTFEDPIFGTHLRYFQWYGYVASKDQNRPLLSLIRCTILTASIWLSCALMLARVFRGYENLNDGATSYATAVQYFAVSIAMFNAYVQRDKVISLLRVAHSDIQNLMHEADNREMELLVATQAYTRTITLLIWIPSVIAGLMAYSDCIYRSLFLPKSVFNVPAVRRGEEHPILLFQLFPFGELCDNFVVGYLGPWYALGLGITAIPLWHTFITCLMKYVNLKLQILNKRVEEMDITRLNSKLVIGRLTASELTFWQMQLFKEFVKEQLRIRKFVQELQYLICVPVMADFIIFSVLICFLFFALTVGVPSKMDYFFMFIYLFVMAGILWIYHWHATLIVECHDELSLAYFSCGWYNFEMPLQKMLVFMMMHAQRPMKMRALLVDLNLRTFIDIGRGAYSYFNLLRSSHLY

`CC1CCCC2(C)CCCCC12O` (stereo not drawn) [geosmin, trans-1,10-dimethyl-trans-9-decalol]: the EC50 (in general, the concentration that produces a half-maximal response) in assay [1] was determined as 630 nM.

For the compound `C=CC(O)CCCCC` (centres unmarked) [1-octen-3-ol], the EC50 in assay [2] worked out at 3500 nM.
